In ChEMBL document CHEMBL5380835, “Discovery of Clinically Used Octenidine as NRAS Repressor That Effectively Inhibits NRAS-Mutant Melanoma” (J Med Chem, 2023):
The source made the active and inactive calls. No cut-off for these calls is given here.

Columns and labels:
SK-MEL-2 [1] = test: Cytotoxicity against human SK-MEL-2 cells assessed as cell growth inhibition incubated for 24 hrs by MTT assay; assay type: functional, cell-based; conditions: SK-MEL-2, 24 h
SK-MEL-2 [2] = test: Effect on NRAS protein translation in human SK-MEL-2 cells at 1/2 times IC50 incubated for 24 hrs by Western blot analysis; assay type: functional, cell-based
SK-MEL-2 [3] = test: Cytotoxicity against human SK-MEL-2 cells expressing NRAS mutant assessed as cell growth inhibition incubated for 48 hrs by MTT assay; assay type: functional, cell-based; conditions: SK-MEL-2, 48 h
SK-MEL-2 [4] = test: Upregulation of NRAS mRNA level in human SK-MEL-2 cells at 1/2 times IC50 incubated for 24 hrs by RT-qPCR analysis; assay type: functional, cell-based
[5] = Binding affinity to 5'-FAM-labeled to NRAS RNA G-quadruplex 5'-r(UGUGGGAGGGGCGGGUCUGGG)-3' (unknown origin) assessed as dissociation constant by fluorescence quenching assay

Kd [5]	Compound	IC50 (SK-MEL-2 [1])	Activity (SK-MEL-2 [2])	IC50 (SK-MEL-2 [3])	Activity (SK-MEL-2 [4])
–	Nc1ccc2cc3ccc(N)cc3nc2c1 [PROFLAVINE]	5.31 µM	inactive	1.6 µM	Active
0.74 µM	CCCCCCNc1cc[n+](CCCCCC[n+]2ccc(NCCCCCC)cc2)cc1	–	–	8.61 µM	–
0.76 µM	CCCCCCNc1cc[n+](CCCC[n+]2ccc(NCCCCCC)cc2)cc1	–	–	17.3 µM	–
1.34 µM	CCCCCCCCNc1cc[n+](CCCC[n+]2ccc(NCCCCCCCC)cc2)cc1	–	–	5.61 µM	–
